The text below walks through data of the METLIN SMRT retention time set (Domingo-Almenara et al. 2019).

SMILES strings stand for the structures.

The nature of this data set: gradient 5% acetonitrile 3 min, to 50% in 2 min, to 85% in 15 min, held 3 min, 100 µL/min. The settings on record: column: Zorbax Extend-C18 2.1 x 50 mm; eluents: water / acetonitrile, 0.1% formic acid. An outline of the steps:
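Pure standards were run in mixtures of ~100 molecules by HPLC coupled to a quadrupole time-of-flight mass spectrometer. The column was a Zorbax Extend-C18 (2.1 × 50 mm, 1.8 μm) at 100 μL/min, with water and acetonitrile each containing 0.1% formic acid, in positive and negative ionization mode. Dead and dwell volumes were 40 μL and 900 μL. Retention time was taken from computationally picked adduct peaks, each manually inspected, with data collected over 3 months.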
As to `CN(C)C(=O)c1cc2c(s1)CCC(C(=O)NC1CCN(Cc3ccccc3)CC1)C2` (stereo not drawn), the RP-LC retention time stood at 598 s.

The compound `CCOC(=O)c1cccc(NC(=O)c2cc(C)nn2-c2ccccc2)c1` showed an RP-LC retention time of 936 s.

As to `COCc1nc(-c2ccc(OC3CN(C(=O)NC(C)C)C3)cc2)no1`, the RP-LC retention time is 773 s.

`O=[N+]([O-])c1cccc(CSc2ccc3nnc(-c4cccs4)n3n2)c1` registered an RP-LC retention time of 789 s.

With `COc1ccc(OC)c(NC(=O)Cn2nc(N3CCOCC3)c3ccccc3c2=O)c1`, the RP-LC retention time amounted to 796 s.

`CCOC(=O)c1[nH]c(C)c(CN(Cc2ccco2)C(=O)c2ccco2)c1C` registered an RP-LC retention time of 902 s.

`Cn1c(=O)c(N2CCC(C(=O)NCCN3CCCCCC3)CC2)nc2cccnc21` showed an RP-LC retention time of 611 s.

Take `Cn1cnc(S(=O)(=O)N2c3ccccc3CC2c2nnc(C3CCOCC3)o2)c1` (stereo not drawn): the RP-LC retention time is 680 s.

On to `O=C(C1CCCCC1)N1CCCC(c2n[nH]c(C3CC3)n2)C1` (stereo not drawn), for which the RP-LC retention time came to 584 s.

The compound `CCN1C(=O)C2(CCN(S(=O)(=O)c3ccc(C)c(C)c3)CC2)c2ccccc21` registered an RP-LC retention time of 1130 s.

Compound `Cc1cccc(N2CCN(CC(O)c3ccc4c(c3)OCO4)CC2)c1C` (stereo not drawn) displayed an RP-LC retention time of 720 s.

Take `COc1ccc(NC(=O)C2CCN(S(=O)(=O)c3c(C)nn(-c4ccccc4)c3C)CC2)c(OC)c1`: the RP-LC retention time was 940 s.

Turning to `COC(=O)c1ccc(NC(=O)CN2CCc3[nH]c4c(F)c(Cl)ccc4c(=O)c3C2)cc1`, the RP-LC retention time is 630 s.

As for `COc1ccc(OCC(=O)N2CCCC2c2nc(-c3ccc(OC)cc3)no2)cc1` (stereo not drawn), the RP-LC retention time is 934 s.

`CCc1nc(-c2csc(S(=O)(=O)N3CCC(C(=O)NCc4ccc(Cl)cc4)CC3)c2)no1` yielded an RP-LC retention time of 994 s.

For `O=C(Cn1ccc2ccccc21)NCc1c(F)cccc1F`, the RP-LC retention time is 826 s.

Consider `CCC(=O)Nc1ccc(CCc2nc3ccc(C(=O)NCc4ccco4)cc3[nH]2)cc1`, for which the RP-LC retention time was 597 s.

`O=C1CC(c2noc(-c3ccc(F)cc3)n2)CN1c1ccc(F)c(Cl)c1` (stereo not drawn): the RP-LC retention time came out at 1100 s.

Turning to `OC(CN1CCN(c2ccc(F)cc2)CC1)c1ccc2c(c1)OCO2` (stereo not drawn), the RP-LC retention time stood at 635 s.

`CCOC(=O)c1ccccc1NC(=O)Cn1cnc2nc(-c3cccnc3)ncc2c1=O` had an RP-LC retention time of 744 s.

On to `CC(NC(=O)CC1Sc2ccc(C(F)(F)F)cc2NC1=O)c1ccccc1` (stereo not drawn), for which the RP-LC retention time was 848 s.

`COc1cc(C2CC(=O)c3c([nH]c(C(=O)OC4CCCCC4)c3C)C2)cc(OC)c1OC` (stereo not drawn) had an RP-LC retention time of 1090 s.

As to `CCOC(=O)c1c(S(=O)(=O)N2CCC(C(=O)NCc3ccco3)CC2)c(C)n(C)c1C`, the RP-LC retention time is 740 s.

Turning to `CCc1nc2ccccc2c(=O)n1Cc1noc(-c2cccc(OC)c2OC)n1`, the RP-LC retention time turned out to be 872 s.

Turning to `Cc1ccc(CCNC(=O)c2cc3n(n2)CC(C)(C(=O)NCc2ccccc2)N(C)C3=O)cc1` (stereo not drawn), the RP-LC retention time worked out at 815 s.

Take `CCOc1ccc(-n2nnnc2CNC(=O)CCCN2C(=O)c3ccccc3C2=O)cc1`: the RP-LC retention time turned out to be 734 s.

For the compound `COc1ccc(S(=O)(=O)NCc2cccnc2-c2cccc(C)c2)cc1`, the RP-LC retention time turned out to be 695 s.

`O=C(c1ccc(C(F)(F)F)cc1)N1CCC(n2c(-c3ccco3)nc3cccnc32)C1` (stereo not drawn) came in with an RP-LC retention time of 826 s.

Turning to `COc1ccc(C(=O)N2c3ccccc3NC3=C(C(=O)CCC3)C2c2ccco2)cc1` (stereo not drawn), the RP-LC retention time came to 762 s.

For `O=C(COc1ccccc1Cl)NCCCn1nc(-c2ccc(F)cc2)ccc1=O`, the RP-LC retention time was 807 s.

Compound `O=C(Cc1cccc(C(F)(F)F)c1)Nc1cccn2ncnc12` had an RP-LC retention time of 837 s.

With `COC(=O)c1cncc(C)c1`, the RP-LC retention time stood at 662 s.

`Cc1nn(-c2ccc(Nc3ccc(NC(=O)c4ccccc4F)cc3)nn2)c(C)c1C`: the RP-LC retention time turned out to be 802 s.

Compound `COc1cc(-c2ccnc3nc(Cc4ccc(F)cc4)nn23)cc(OC)c1OC` registered an RP-LC retention time of 695 s.

As for `O=C(Nc1ccccc1Cl)N1CCC(N2CCN(Cc3ccc(F)cc3)C(=O)C2=O)CC1`, the RP-LC retention time is 776 s.

The compound `Cc1ccc(S(=O)(=O)N2CCC(c3nc(-c4ccccn4)no3)CC2)cc1C` came in with an RP-LC retention time of 970 s.

`CCn1cnc(S(=O)(=O)N2CCC(C(=O)NCCc3ccc(OC)c(OC)c3)CC2)c1`: the RP-LC retention time amounted to 661 s.

As to `CN(C)CCNC(=O)c1c(-c2ccccc2)c(-c2ccccc2)nn(C)c1=O`, the RP-LC retention time is 628 s.

In the case of `Cc1ccc2c(c1)C(=O)NC1(CCN(C(=O)c3ccc(F)c(F)c3)CC1)N2C`, the RP-LC retention time was 795 s.

Take `CCOc1ccc(NC(=O)N(C)Cc2nc3ccccc3c(=O)n2CCOC)cc1`: the RP-LC retention time is 811 s.

As to `COCCNc1c(-c2cccc(F)c2)nc2sc(C(=O)N(C)C)c(C)n12`, the RP-LC retention time worked out at 742 s.

As for `COc1ccc(C(=O)NC2CCN(c3cc(C)cc(C)c3)C2=O)cc1` (stereo not drawn), the RP-LC retention time worked out at 878 s.

Compound `O=C(CSc1cc(N2CCN(c3ccccc3F)CC2)ncn1)Nc1ccccc1F` displayed an RP-LC retention time of 1190 s.

As for `CCCCNC(=O)c1c(C)c2c(=O)n(CC(=O)Nc3ccc(Br)cc3)ncn2c1C`, the RP-LC retention time amounted to 826 s.

`COc1ccc(CCc2nc(C3CC(=O)N(c4ccc(F)c(Cl)c4)C3)no2)cc1` (stereo not drawn): the RP-LC retention time came to 1040 s.

`Cc1nc(-c2cn(C(C)C)c3ncccc23)sc1C(=O)NCc1ccccc1` returned an RP-LC retention time of 995 s.

`CCN1C(=O)C2(CCN(C(=O)NC3CCCCC3)CC2)c2ccccc21` came in with an RP-LC retention time of 867 s.

`Cc1cc(C)cc(-n2c(CN3CCN(C(=O)Nc4ccc5c(c4)OCCO5)CC3)nc3cccnc32)c1` showed an RP-LC retention time of 693 s.

`COc1ccc2c(c1)C1(CCN(C(=O)c3ccc(OC)c(OC)c3)C1)C(=O)N2C` (stereo not drawn) had an RP-LC retention time of 886 s.

In turn, `CCc1cccc(NS(=O)(=O)c2cc3n(c2)CCN(C(C)C)C3=O)c1` had an RP-LC retention time of 816 s.

`CC(=O)N1CCN(c2nc3c(s2)CC(C(=O)NCc2cc(C)ccc2C)CC3)CC1` (stereo not drawn): the RP-LC retention time was 576 s.

For the compound `CCCCOc1ccc(C(=O)Nc2nc(-c3ccc(OC)c(C)c3)cs2)cc1`, the RP-LC retention time was determined as 1240 s.

Take `O=C(NCCCN1CCCC1=O)C1CCCN(c2ncnc3c2nc2n3CCCCC2)C1` (stereo not drawn): the RP-LC retention time worked out at 605 s.

`CCc1nn(CC(=O)NCCc2c[nH]c3ccccc23)c(=O)c2cc3sc(C)cc3n12` displayed an RP-LC retention time of 894 s.

`COc1ccc(-n2nnc(-c3nc(-c4ccccc4OC)cs3)c2N)cc1` displayed an RP-LC retention time of 1090 s.

Consider `Cc1cc(C)n(CCNC(=O)NC(c2ccccc2)c2ccccc2)n1`, for which the RP-LC retention time was found to be 716 s.

In turn, `Cc1ccn2cc(-c3ccc(NC(=O)Nc4ccccc4)cc3)nc2n1` gave an RP-LC retention time of 640 s.

Consider `CCOC(=O)CCC(=O)NCC1(c2ccc(OC)cc2)CCCC1`, for which the RP-LC retention time is 856 s.

`Cc1cccc(-c2nc(CNC(=O)CCC(F)(F)F)no2)c1` yielded an RP-LC retention time of 870 s.

Compound `CN(C)S(=O)(=O)c1ccc(-c2nnc(C(=O)NCc3ccc(F)cc3)o2)cc1` returned an RP-LC retention time of 844 s.

The compound `COC(=O)CC(=O)Nc1nnc(SCc2nnc(-c3ccccc3C)o2)s1` came in with an RP-LC retention time of 758 s.

In the case of `CCOC(=O)c1c(S(=O)(=O)N2CCC(C(=O)Nc3ccc(Cl)cc3)CC2)c(C)n(C)c1C`, the RP-LC retention time was 913 s.

In the case of `NC(N)=NCCC[C@H](NC(=O)c1sccc1NS(=O)(=O)c1cccc2nsnc12)C(=O)O`, the RP-LC retention time is 685 s.

Regarding `Cc1nc2cccnc2n1CCN1CCN(C(=O)Nc2ccc(F)c(Cl)c2)CC1`, the RP-LC retention time amounted to 618 s.

`O=C(NCc1ccc(Br)cc1)c1ccc2ncnc(N3CCCC3)c2c1` returned an RP-LC retention time of 679 s.

For the compound `CCOc1ccccc1-c1noc(CN2N=NC3C(=O)N(c4ccc(OC)c(OC)c4)C(=O)C32)n1` (stereo not drawn), the RP-LC retention time was determined as 868 s.

For the compound `CCSc1nnc(-c2nn(C)c3c2CN(C(=O)c2cccc(F)c2)CC3)n1C`, the RP-LC retention time was 744 s.

In turn, `CC(C)c1ccc(OCC(=O)Nc2nnc(-c3ccc(Br)o3)o2)cc1` registered an RP-LC retention time of 906 s.

`CCCn1c(=O)sc2cc(S(=O)(=O)N3CCC(C(=O)N4CCCCCC4)CC3)ccc21` came in with an RP-LC retention time of 937 s.

`Cc1cc(C)n(-c2ccnc(NCc3ccc(Cl)cc3)n2)n1`: the RP-LC retention time came out at 928 s.

On to `COc1ccc(C(=O)NC2CCN(c3cc(-c4cccs4)[nH]n3)C2)cc1F` (stereo not drawn), for which the RP-LC retention time is 720 s.

Take `CCOc1ccccc1CNC(=O)CCc1c(-c2ccc(Br)cc2)nc2ccccn12`: the RP-LC retention time turned out to be 744 s.

With `CC1CCN(CCNC(=O)c2cccc3c2SCCC3=O)CC1`, the RP-LC retention time is 588 s.

`Cc1nc(C)c(C(=O)N2CCC(c3noc(-c4cnccn4)n3)C2)s1` (stereo not drawn) had an RP-LC retention time of 632 s.

`O=C(Cn1nc(N2CCOCC2)c2ccccc2c1=O)Nc1ccc2c(c1)OCO2`: the RP-LC retention time was determined as 733 s.

`O=C(NCc1cccc(F)c1)C1CCCN(c2nnc3c(Cl)cccn23)C1` (stereo not drawn) gave an RP-LC retention time of 701 s.

The compound `CC(C)n1cnc(S(=O)(=O)N2CCC(C(=O)Nc3ccc4c(c3)OCO4)CC2)c1` registered an RP-LC retention time of 722 s.

`CNC(=O)C1CN(C(=O)c2ccc(OC)cc2)CC12CCCC2` (stereo not drawn) yielded an RP-LC retention time of 570 s.
